Test results from patent publication EP0376518B1, “Phospholipid nucleosides” (ELI LILLY AND COMPANY, priority 1988, dated 1990).

Tested on: M-5 ovarian carcinoma
Test: Test 1: M-5 ovarian carcinoma in mice, single dose
Format: in vivo
Settings: single dose two days after inoculation; for Toxicity (number of animals which exhibited signs of toxicity): group of 10 mice; for Inhibition (percent inhibition of tumor growth): tumors measured 13 days after inoculation
Excerpt: Representative compounds of the invention have been tested using murine tumors in female mice to determine their antineoplastic efficacy. Several different tumor systems have been used in these tests, and the compounds have been administered on a number of different dosage schedules. In general, all the tests were started by inoculating female mice with the tumor, subcutaneously. After some number of days delay, intraperitoneal administration of the test compound was begun. Each treatment group consisted of 10 mice, and untreated control groups were included in all experiments. At the completion of the treatment period, the tumors of the control and the treated mice were measured and the mass of them calculated from the measurements. The data are reported here as percent inhibition of tumor growth, based on the tumors of the untreated control mice.
The tumor in this test was M-5 ovarian carcinoma; the compounds were administered as a single dose, two days after inoculation, and the tumors were measured 13 days after inoculation.

## CCCCCCCCCCCCCCCCCCC(COP(=O)(O)OP(=O)(O)OC[C@H]1O[C@@H](n2ccc(N)nc2=O)C(F)(F)[C@@H]1O)OCC (stereo partly shown) [Example 3, 2′-Deoxy-2′,2′-difluorocytidine, 5′-(dihydrogen diphosphate), P′-(2-ethoxyeicosyl) ester]
50 mg/kg intraperitoneal
  Toxicity (number of animals which exhibited signs of toxicity): 0/10
  Inhibition (percent inhibition of tumor growth): 53%
100 mg/kg intraperitoneal
  Toxicity (number of animals which exhibited signs of toxicity): 0/10
  Inhibition (percent inhibition of tumor growth): 64%
